Data as given in patent publication EP4768499A1, “MACROCYCLIC PEPTIDE COMPOUND HAVING CELL MEMBRANE PERMEABILITY AND METABOLIC STABILITY, AND LIBRARY CONTAINING SAME” (Chugai Seiyaku Kabushiki Kaisha, priority 2023, dated 2025).
Like-named read-outs stand apart in the source and are kept apart here. Starred links: 1 amine or outer side, 2 acyl side, 3 side chain; linkers in the order of their positions; H or OH if unused. Positions of bridges follow the written chain, without caps; N, C: chain ends. Non-standard residues stand in square brackets, D forms with d. Residues, ends and D or L forms follow the SMILES beside them. *: point of attachment. NMeF = CN[C@@H](Cc1ccccc1)C(=O)O; NMeI = CC[C@H](C)[C@H](NC)C(=O)O; NMeT = CN[C@H](C(=O)O)[C@@H](C)O; hPhe = N[C@@H](CCc1ccccc1)C(=O)O; NMeβAla = CN(CCC(=O)[*:2])[*:1]; NMeD = CN[C@@H](CC(=O)O)C(=O)O; NMeL = CN[C@@H](CC(C)C)C(=O)O; dNMeV = CN[C@@H](C(=O)O)C(C)C; NMeV = CN[C@H](C(=O)O)C(C)C; d(β3hA) = C[C@@H](N)CC(=O)O; NMeAbu = CC[C@H](NC)C(=O)O; NMeA = CN[C@@H](C)C(=O)O; Piperidide = C1CCN(*)CC1; Abu = CC[C@H](N)C(=O)O; NBuGly = CCCCNCC(=O)O; Sar = CNCC(=O)O; tBu = CC(C)(C)*

Legend:
[1] = Mouse PK test: plasma concentration after intravenous or oral administration; type: in vivo, mice (C57BL/6J); settings: C57BL/6J, plasma, male mice; for AUC(0-inf): read-out: AUCinf; for half-life: read-out: t1/2 (converted)
Protocol: We evaluated the plasma concentration changes after intravenous or oral administration of four types of peptides that satisfy these conditions to mice.
To male mice (C57BL/6J, 10 weeks old, purchased from Charles River Laboratories Japan, Inc.: 3 mice per group), the compound was administered intravenously at a dose of 1 mg/kg or orally at a dose of 50 mg/kg, and blood was collected from the jugular vein over time up to 24 hours after administration. The collected blood was dispensed into tubes that were pre-treated with heparin as an anticoagulant. Plasma was separated from the blood by centrifugation, and after deproteinization with acetonitrile, the plasma concentration of the compound was measured with an LC/MS/MS device (XEVO TQ-XS, manufactured by Waters Corporation).

[2] = Membrane permeability test using Caco-2 cells with preincubation; type: in vitro ADME; settings: Caco-2; preincubation 20 to 24 hours; Apical FaSSIF/HBSS pH 6.0, Basal HBSS 4% BSA pH 7.4; 180 minutes; read-out: Caco2 Papp
[3] = system: Caco-2 cells; test: as above; type: in vitro ADME; settings: Caco-2 cells, preincubation 20 to 24 hours; apical FaSSIF/HBSS 1% DMSO pH 6.0, basal HBSS 4% BSA pH 7.4; basal sample at 180 minutes
[4] = Metabolic stability test: liver microsomal stability assay; type: in vitro ADME, mouse; settings: mouse liver microsomes 0.5 mg protein/mL, compound 1 µM; for microsomal CLint at 1 µM: male, pH 7.4, presence of NADPH, read-out: Mouse Hepatic Microsome CLh,int NADPH(+); for Mouse Hepatic Microsome CLh,int NADPH(-): absence of NADPH
[5] = intravenous administration, 1 mg/kg

SMILES	AUC(0-inf) [1, 5] [ng·h/mL]	clearance ([1]; intravenous administration, 1 mg/kg, read-out: CL) [mL/min/kg]	Vd ([1]; intravenous administration, 1 mg/kg, read-out: Vss) [L/kg]	half-life [1, 5] [h]	bioavailability ([1]; oral 50 mg/kg vs intravenous 1 mg/kg, bioavailability, read-out: F) [%]	AUC(0-inf) ([1]; oral administration, 50 mg/kg) [ng·h/mL]	Cmax ([1]; oral administration, 50 mg/kg, read-out: Cmax) [ng/mL]	Tmax ([1]; oral administration, 50 mg/kg, read-out: Tmax) [h]	half-life ([1]; oral administration, 50 mg/kg) [h]	Papp A→B [2] [×10⁻⁶ cm/s]	Caco2 Papp (10^-6 cm/sec) [3]	microsomal CLint at 1 µM [4] [µL/min/mg]	Mouse Hepatic Microsome CLh,int NADPH(-) [4] [µL/min/mg Protein]
CC[C@H](C)[C@@H]1NC(=O)[C@H](CC(C)C)N(C)C(=O)C[C@@H](C)NC(=O)[C@H](C(C)C)N(C)C(=O)[C@H](COC(C)(C)C)NC(=O)[C@H](CC)N(C)C(=O)[C@H](Cc2ccccc2)N(C)C(=O)[C@H](CC(C)C)NC(=O)[C@@H]2CCCN2C(=O)[C@H]([C@@H](C)O)N(C)C(=O)[C@H](CC(C)C)N(C)C(=O)[C@H](CC)N(C)C(=O)[C@H](C(C)C)NC(=O)[C@H](CC(C)C)N(C)C1=O [pd057] (cyclo(I[NMeL]V[NMeAbu][NMeL][NMeT]PL[NMeF][NMeAbu]S(tBu)[NMeV][d(β3hA)][NMeL]))	1200	14	11	12	33	20000	2200	2.7	6.6	1.16	1.16 10^-6 cm/sec	50.4	44.8
CC[C@H](C)[C@@H]1NC(=O)CN(C)C(=O)C[C@@H](C(=O)N2CCCCC2)N(C)C(=O)[C@H](CC(C)C)NC(=O)[C@H](CC(C)C)N(C)C(=O)[C@H]([C@@H](C)O)NC(=O)[C@H](Cc2ccccc2)N(C)C(=O)[C@H](CC(C)C)NC(=O)[C@H](C(C)C)N(C)C(=O)[C@H](C)N(C)C(=O)[C@H](CC(C)C)N(C)C(=O)[C@H](CCc2ccccc2)NC(=O)[C@H](CC(C)C)N(C)C1=O [pd160] ([Sar]I[NMeL][hPhe][NMeL][NMeA][NMeV]L[NMeF]T[NMeL]L[NMeD]-Piperidide; lactam N-13)										0.06	0.06 10^-6 cm/sec	21.5	22.3
CC(C)C[C@@H]1NC(=O)[C@H](C(C)C)N(C)C(=O)[C@H](Cc2ccccc2)N(C)C(=O)[C@H](COC(C)(C)C)NC(=O)[C@H](CC(C)C)N(C)C(=O)[C@H](C)N(C)C(=O)[C@H]([C@@H](C)O)NC(=O)[C@H](CC(C)C)N(C)C(=O)[C@H](C(C)C)N(C)C(=O)[C@H](CCc2ccccc2)NC(=O)[C@H](CC(C)C)N(C)C(=O)[C@@H](C(C)C)N(C)C(=O)C[C@@H](C(=O)N2CCCCC2)N(C)C1=O [pd161] ([dNMeV][NMeL][hPhe][NMeV][NMeL]T[NMeA][NMeL]S(tBu)[NMeF][NMeV]L[NMeD]-Piperidide; lactam N-13)										0.09	0.09 10^-6 cm/sec	35.3	37.0
CC[C@@H]1NC(=O)[C@H](CC(C)C)N(C)C(=O)[C@H]([C@@H](C)O)NC(=O)[C@H](C(C)C)N(C)C(=O)[C@H](Cc2ccccc2)N(C)C(=O)[C@@H](C(C)C)NC(=O)C[C@@H](C(=O)N2CCCCC2)N(C)C(=O)CN(C)C(=O)[C@H](Cc2ccccc2)N(C)C(=O)[C@H](C)N(C)C(=O)[C@H](COC(C)(C)C)NC(=O)[C@H](CC(C)C)N(C)C(=O)CN(C)C1=O [pd162] ([dV][NMeF][NMeV]T[NMeL][Abu][Sar][NMeL]S(tBu)[NMeA][NMeF][Sar][NMeD]-Piperidide; lactam N-13)										0.51	0.51 10^-6 cm/sec	12.5	16.3
CC[C@@H]1NC(=O)[C@H](Cc2ccccc2)N(C)C(=O)[C@H](CC(C)C)N(C)C(=O)[C@H](CC(C)C)NC(=O)[C@H](C)N(C)C(=O)C[C@@H](C(=O)N2CCCCC2)N(C)C(=O)[C@H](CC(C)C)N(C)C(=O)[C@H]([C@@H](C)CC)NC(=O)[C@H](Cc2ccccc2)N(C)C(=O)[C@H]([C@@H](C)O)N(C)C(=O)[C@H]([C@@H](C)CC)N(C)C(=O)[C@H](CC(C)C)NC(=O)CN(C)C1=O [pd163] ([NMeA]L[NMeL][NMeF][Abu][Sar]L[NMeI][NMeT][NMeF]I[NMeL][NMeD]-Piperidide; lactam N-13)										0.04	0.04 10^-6 cm/sec	28.2	36.5
CC[C@H](C)[C@@H]1NC(=O)[C@@H]2CCCN2C(=O)[C@H](C(C)C)N(C)C(=O)[C@H](CC(C)C)N(C)C(=O)C[C@@H](C(=O)N2CCCCC2)N(C)C(=O)[C@H](CC(C)C)NC(=O)[C@H](CC(C)C)N(C)C(=O)[C@H](C)NC(=O)[C@@H]2CCCN2C(=O)[C@H]([C@@H](C)O)NC(=O)[C@H](CC(C)C)N(C)C(=O)CN(C)C(=O)[C@H](Cc2ccccc2)N(C)C1=O [pd164] ([NMeL][NMeV]PI[NMeF][Sar][NMeL]TPA[NMeL]L[NMeD]-Piperidide; lactam N-13)										0.06	0.06 10^-6 cm/sec	14.6	10.0
CC[C@H](C)[C@@H]1NC(=O)CN(C)C(=O)C[C@@H](C(=O)N2CCCCC2)N(C)C(=O)[C@H](Cc2ccccc2)N(C)C(=O)[C@H](CC(C)C)N(C)C(=O)[C@H]([C@@H](C)O)NC(=O)[C@H](CC(C)C)N(C)C(=O)[C@H](CC(C)C)NC(=O)[C@H](C(C)C)N(C)C(=O)[C@H](C)N(C)C(=O)[C@H](CC(C)C)N(C)C(=O)[C@H](CCc2ccccc2)NC(=O)[C@H](CC(C)C)N(C)C1=O [pd165] ([Sar]I[NMeL][hPhe][NMeL][NMeA][NMeV]L[NMeL]T[NMeL][NMeF][NMeD]-Piperidide; lactam N-13)										0.1	0.10 10^-6 cm/sec	40.9	27.2
CC[C@H](C)[C@@H]1NC(=O)[C@H](CC(C)C)N(C)C(=O)[C@H](CC(C)C)NC(=O)CCN(C)C(=O)C[C@@H](C(=O)N2CCCCC2)N(C)C(=O)[C@H](CC(C)C)N(C)C(=O)[C@H](C)N(C)C(=O)[C@H]([C@@H](C)O)N(C)C(=O)[C@H](CC(C)C)N(C)C(=O)[C@H](COC(C)(C)C)NC(=O)[C@H](Cc2ccccc2)N(C)C(=O)[C@H](CC(C)C)N(C)C(=O)[C@H](Cc2ccccc2)N(C)C1=O [pd166] ([NMeβAla]L[NMeL]I[NMeF][NMeL][NMeF]S(tBu)[NMeL][NMeT][NMeA][NMeL][NMeD]-Piperidide; lactam N-13)										0.13	0.13 10^-6 cm/sec	32.4	34.0
CC[C@@H]1NC(=O)[C@H](Cc2ccccc2)N(C)C(=O)[C@H]([C@@H](C)O)NC(=O)[C@H](CC(C)C)N(C)C(=O)[C@H](C)N(C)C(=O)C[C@@H](C(=O)N2CCCCC2)N(C)C(=O)[C@H](CC(C)C)N(C)C(=O)[C@H]([C@@H](C)CC)N(C)C(=O)CN(C)C(=O)[C@H](CC(C)C)NC(=O)[C@H](Cc2ccccc2)N(C)C(=O)[C@H](CC(C)C)N(C)C(=O)[C@H]([C@@H](C)CC)N(C)C1=O [pd167] ([NMeA][NMeL]T[NMeF][Abu][NMeI][NMeL][NMeF]L[Sar][NMeI][NMeL][NMeD]-Piperidide; lactam N-13)										0.23	0.23 10^-6 cm/sec	35.9	33.0
CCCCN1CC(=O)N(C)[C@@H](Cc2ccccc2)C(=O)N[C@@H](CC(C)C)C(=O)N(C)[C@@H](C(C)C)C(=O)N(C)[C@@H](C)C(=O)N[C@@H](COC(C)(C)C)C(=O)N(C)[C@@H](CC)C(=O)N(C)[C@H](C(=O)N2CCCCC2)CC(=O)N(C)CC(=O)N(C)[C@@H](Cc2ccccc2)C(=O)N[C@@H]([C@@H](C)CC)C(=O)N(C)[C@@H](CC(C)C)C(=O)N(C)[C@@H]([C@@H](C)O)C1=O [pd168] ([Sar][NMeF]I[NMeL][NMeT][NBuGly][NMeF]L[NMeV][NMeA]S(tBu)[NMeAbu][NMeD]-Piperidide; lactam N-13)										1.11	1.11 10^-6 cm/sec	21.9	21.8
